According to patent publication US9623073B2, “Learning motivation improvers” (SUNTORY HOLDINGS LIMITED, priority 2009, dated 2017):
Where two headings read alike, the source gives them in different places.

What was measured:
[1] = target: T1, human norepinephrine transporter expressed in CHO cells (Homo sapiens, UniProt P23975); experiment: Inhibitory activity on norepinephrine transporter binding (3H-nisoxetine); conditions: for IC50: concentration required for 50% inhibition of binding
T1 construct: expressed in transfected cells; host or cells: CHO cells
Description: The term “SNRI antidepressant” is intended to mean an agent that binds to both serotonin and norepinephrine transporters, and inhibits the reuptake of serotonin and norepinephrine. Inhibitory activity on norepinephrine transporter binding may be measured, for example, as described in Nature, 350: 350-354, 1991. Namely, it is measured by determining whether ^3H-labeled nisoxetine binds to the human norepinephrine transporter expressed in CHO cells.
(§1) Various cyclic dipeptides were measured for their inhibitory activity on serotonin transporter binding and norepinephrine transporter binding, as described in the prior documents mentioned above (Eur J Pharmacol, 368, 277-283, 1999 for inhibitory activity on serotonin transporter binding; and Nature, 350, 350-354, 1991 for inhibitory activity on noradrenaline transporter binding). Compound C was synthesized by Peptide Institute, Inc., Japan, and the other cyclic dipeptides were purchased from Bachem AG (Bubendorf, Switzerland). The results were expressed as IC50 values, i.e., the concentrations of the various cyclic peptides required for 50% inhibition of binding to each transporter (Table 1).

C57BL/6 mice = experiment: Morris water maze (MWM) after open space swimming (OSS), learning motivation; type: in vivo; conditions: for improving effect on learning motivation over control group (OSS-Vehicle): 20 mg/kg, MWM, FIG. 2
Description: On the other hand, the Morris water maze test has been reported as a method for measuring spatial memory and learning (Learn. Motiv. 12, 239-260 (1981)). In this test, the time required to reach an escape platform (escape latency) is used as a parameter for evaluation, because mice will remember their surrounding scenery and swim in a pool filled with water to try to find and reach the escape platform, which is a goal, with their memory as a guide. Since mice to be used in this test are treated to reduce their motivation by being allowed to swim in a pool having no escape platform before the Morris water maze test, a reduction in the time required to reach the escape platform can be regarded as an improvement in learning motivation.
Compound A was evaluated for its antidepressive effect and enhancing effect on learning motivation by the method known in the art, i.e., Morris Water Maze (MWM).
First, water which had been colored black with Indian ink was filled into a cylindrical tank of 90 cm diameter and 35 cm height to give a water depth of 20 cm, and the water temperature was set to 22±1° C. To this tank, C57BL/6 mice (male, 9 weeks of age) were each transferred and allowed to experience open space swimming (OSS). Upon OSS, mice will cause changes in their behavior and enter a state corresponding to depression. After repeating OSS for 5 days, the mice were divided into 7 groups.
Next, in the above cylindrical tank of 90 cm diameter and 35 cm height, an escape platform of 10 cm diameter was placed at a water depth of 0.5 cm. The above 7 groups of mice were each orally administered with compound A (Bachem AG (Bubendorf, Switzerland)) or with a comparative drug, fluvoxamine maleate, in the form of a suspension in physiological saline. After 60 minutes, each mouse was transferred to the tank provided with the escape platform, and measured for the time required to find out the invisible escape platform placed below the water surface (i.e., escape latency) to evaluate the spatial memory and learning ability of each mouse (MWM). As control mice, animals experiencing no OSS were administered with physiological saline and subjected to MWM. MWM was repeated five times a day for 10 days.
In the same manner as shown in Example 2, mice were administered with 20 mg/kg compound A and then subjected to the MWM test. As a control, a linear dipeptide (Phe-Phe) was administered at 20 mg/kg, followed by the MWM test.
In the same manner as shown in Example 2, another group receiving 0.002 mg/kg administration was prepared and subjected to the same MWM test.

mice = experiment: Single-dose (acute) toxicity study; type: in vivo; conditions: administered at 2 g/kg
[2] = target: T2, human serotonin transporter expressed in CHO cells (Homo sapiens, UniProt P31645); experiment: Inhibitory activity on serotonin transporter binding (3H-imipramine)
T2 construct: expressed in transfected cells; host or cells: CHO cells
Description: As used herein, the term “SSRI antidepressant” is intended to mean an agent that selectively binds to the serotonin transporter and inhibits the reuptake of serotonin through this serotonin transporter. Inhibitory activity on serotonin transporter binding may be measured, for example, as described in Eur. J. Pharmacol., 368: 277-283, 1999. Namely, it is measured by determining whether ^3H-labeled imipramine binds to the human serotonin transporter expressed in CHO cells.
as §1

[3] = Genetic toxicity studies (Ames test, chromosomal aberration test, mouse micronucleus test)
rats = experiment: 28-day repeated dose toxicity study; type: in vivo
[4] = concentration required for 50% inhibition of binding, read-out: IC50, serotonin transporter (converted)

T1 sequence (P23975 whole entry): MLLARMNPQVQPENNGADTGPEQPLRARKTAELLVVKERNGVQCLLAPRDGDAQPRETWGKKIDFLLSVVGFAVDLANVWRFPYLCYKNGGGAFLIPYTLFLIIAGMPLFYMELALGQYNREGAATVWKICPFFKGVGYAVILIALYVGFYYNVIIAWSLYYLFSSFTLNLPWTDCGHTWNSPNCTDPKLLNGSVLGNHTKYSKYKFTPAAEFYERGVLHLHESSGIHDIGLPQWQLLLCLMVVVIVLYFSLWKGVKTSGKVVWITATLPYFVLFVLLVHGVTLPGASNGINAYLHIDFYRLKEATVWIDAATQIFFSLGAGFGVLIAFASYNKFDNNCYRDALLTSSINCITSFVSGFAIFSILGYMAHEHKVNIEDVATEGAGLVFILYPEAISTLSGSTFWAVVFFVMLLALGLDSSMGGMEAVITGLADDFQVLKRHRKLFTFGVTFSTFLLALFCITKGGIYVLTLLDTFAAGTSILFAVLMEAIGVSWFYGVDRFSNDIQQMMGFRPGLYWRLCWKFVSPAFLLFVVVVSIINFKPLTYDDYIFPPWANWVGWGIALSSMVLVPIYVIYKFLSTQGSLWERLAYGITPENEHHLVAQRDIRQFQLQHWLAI
T2 sequence (P31645 whole entry): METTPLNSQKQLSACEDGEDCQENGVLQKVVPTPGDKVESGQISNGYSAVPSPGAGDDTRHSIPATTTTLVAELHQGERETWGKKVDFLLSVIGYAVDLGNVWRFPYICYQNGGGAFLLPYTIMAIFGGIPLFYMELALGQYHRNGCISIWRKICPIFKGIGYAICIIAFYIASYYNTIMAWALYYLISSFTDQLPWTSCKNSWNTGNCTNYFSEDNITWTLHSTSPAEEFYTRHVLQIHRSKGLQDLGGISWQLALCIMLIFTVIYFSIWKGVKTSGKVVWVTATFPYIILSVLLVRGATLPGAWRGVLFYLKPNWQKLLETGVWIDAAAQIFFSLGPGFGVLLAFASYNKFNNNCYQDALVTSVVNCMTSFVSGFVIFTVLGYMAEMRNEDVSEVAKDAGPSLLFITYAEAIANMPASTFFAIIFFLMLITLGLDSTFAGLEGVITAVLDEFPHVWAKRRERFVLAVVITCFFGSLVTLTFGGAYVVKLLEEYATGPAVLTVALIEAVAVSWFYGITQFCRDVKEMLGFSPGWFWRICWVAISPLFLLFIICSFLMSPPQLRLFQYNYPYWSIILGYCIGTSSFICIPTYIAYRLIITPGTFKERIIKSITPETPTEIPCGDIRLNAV

Compound | inhibitory activity on norepinephrine transporter binding (in words) [1] | IC50 [1] [mM] | inhibitory activity on serotonin transporter binding (in words) [2] | IC50 [2, 4] [mM] | also measured
CC(C)[C@@H]1NC(=O)[C@@H]2CCCN2C1=O [Compound F, pyrrolo[1,2-a]pyrazine-1,4-dione,hexahydro-3-(1-methylethyl)-,(3S,8aS)] | have inhibitory activity on norepinephrine transporter binding | 10.7 |  |  | 
O=C1N[C@@H](Cc2ccccc2)C(=O)N[C@H]1Cc1ccccc1 [Compound A, 2,5-piperazinedione,3,6-bis(phenylmethyl)-,(3S,6S)] |  |  | have inhibitory activity on serotonin transporter binding | 0.00815 | reduction of escape latency compared to control group (OSS-Saline) (C57BL/6 mice; 0.02 mg/kg oral, at 10 days of MWM): around 20%; time required to reach the escape platform versus fluvoxamine maleate group (C57BL/6 mice; 20 mg/kg oral, at 10 days of MWM): substantially the same; improving effect on learning motivation over control group (OSS-Vehicle) (C57BL/6 mice): significant improving effect on learning motivation; human dose predicted from the effective dose in mice (C57BL/6 mice; 1/10 of the mouse dose 0.02 mg/kg): 0.1 mg/human (50 kg); escape latency, dose dependence (C57BL/6 mice; OSS mice, oral, MWM for 10 days, FIG. 1): dose-dependent reduction in the escape latency; dose at which the effect is exerted (C57BL/6 mice; mice, time to reach the escape platform at 7 days of MWM, FIG. 3): ≥ 0.02 mg/kg; toxicity in single-dose (acute) toxicity study (mice): no toxicity; IC50 ([2]; read-out: concentration (IC50) required for 50% inhibition of serotonin transporter binding): 0.0081 mM; mutagenicity [3]: no mutagenicity; maximum no-effect dose (rats): ≥ 2 g/kg/day
O=C1N[C@@H](Cc2c[nH]cn2)C(=O)N2CCC[C@@H]12 [Compound B, pyrrolo[1,2-a]pyrazine-1,4-dione,hexahydro-3-(1H-imidazol-4-ylmethyl)-,(3S,8aS)] |  |  | have inhibitory activity on serotonin transporter binding | 2.48 | 
Phe-Phe [reference compound] |  |  |  |  | improving effect on learning motivation over control group (OSS-Vehicle) (C57BL/6 mice): not confirmed to have a significant effect
O=C1N[C@@H](Cc2c[nH]c3ccccc23)C(=O)N2CCC[C@@H]12 [Compound C, pyrrolo[1,2-a]pyrazine-1,4-dione,hexahydro-3-(1H-indol-3-ylmethyl)-,(3S,8aS)] |  |  | have inhibitory activity on serotonin transporter binding | 3.74 | 
O=C1N[C@@H](Cc2c[nH]c3ccccc23)C(=O)N[C@H]1Cc1c[nH]c2ccccc12 [Compound D, 2,5-piperazinedione,3,6-bis(1H-indol-3-ylmethyl)-,(3S,6S)] | have inhibitory activity on norepinephrine transporter binding | 0.148 |  |  | 
CC(C)C[C@@H]1NC(=O)[C@@H]2CCCN2C1=O [Compound E, pyrrolo[1,2-a]pyrazine-1,4-dione,hexahydro-3-(2-methylpropyl)-,(3S,8aS)] | have inhibitory activity on norepinephrine transporter binding | 2 |  |  | 
